Measurements from patent US6017878A (McGill University, priority 1994, dated 2000).
Several values for one entry are separate records, joined by “and”; a condition that tells them apart may be missing. Identical values can stand only once. Entries after “also recorded” stand apart in the source; their conditions may differ.

Legend:
PC12 (trkA-p75) = target: T1, PC12 (trkA-p75) (Rattus norvegicus, UniProt P35739); test: 125I-NGF binding to PC12 cells; conditions: mean ±2 SEM
T1 construct: PC12 pheochromocytoma cells expressing rat p140 trkA and p75 LNGFR; host or cells: PC12 rat pheochromocytoma cells
Description: (§1) All cells were cultured as described. PC12 pheochromocytoma cells expressing rat p140 trkA and p75 LNGFR (American Type Culture Collection, 7th edition, 1992, Catalog of cell lines and hybridomas, R. Hay Editor, accession No. CRL 1721) were grown in DMEM supplemented with 20% Fetal Bovine Serum (FBS), 10% Horse serum, and antibiotics. PC12 cells used for experiments were grown on collagen coated dishes. The NIH-3T3 fibroblast transfectants R7 (p75 and trkA double transfectant) and E25 (trkA transfectant) (Jing, S. et al. (1992) Neuron, 9: 1067-1079; kindly provided by Dr. Mariano Barbacid, Bristol-Meyers-Squibb, NJ) were grown in RPMI media supplemented with 5% FBS and antibiotics and the appropriate drug selection.
Analogs were tested for their ability to affect binding of ^125 I-NGF (73.1 μCi/μg NEN, DuPont). […] After 15 min, ^125 I-NGF was added to a final concentration of 0.4-2 nM (^~ 40,000 cpm) and the mixtures were further incubated for 40 min at 4° C. Cells were then washed in binding buffer, pelleted, and cell-associated ^125 I-NGF was determined. […] Assays were performed >4 times, each from at least three different synthesis (inhibitory analogs) or 1-3 times each from 2 different synthesis (non-inhibitory analogs). Receptor saturation experiments were similarly performed with increasing concentrations of ^125 I-NGF ligand and a constant dose of inhibitor.
To determine the mechanism of biological antagonistic activity by the cyclic analogs, ^125 I-NGF binding measurements were performed with cell lines expressing both p75 and trkA receptors (PC12 cells and R7 transfectants) or only trkA receptors (E25 transfectants) (Table III). Analogs were used at a concentration of ^~ 40 μM.
(§2) Data shown represents an average percent inhibition of binding ±2 standard errors of the mean (2 SEM). […] NT=not tested. (*) assayed only once.
(§3) Percent inhibition was determined by applying the following formula: [formula]

[1] = target: T2, R7 (trkA-p75), NIH-3T3 p75 and trkA double transfectant (Homo sapiens, UniProt P04629); test: 125I-NGF binding to R7 transfectants; conditions: analog ~40 μM; for % INHIBITION of 125I-NGF binding, R7 (trkA-p75): mean ±2 SEM
T2 construct: expressed in transfected cells; host or cells: NIH-3T3 mouse fibroblasts (R7), from Dr. Mariano Barbacid; Jing et al. 1992
Description: as §1
(§4) Assays were performed >4 times, each from at least three different synthesis (inhibitory analogs) or 1-3 times each from 2 different synthesis (non-inhibitory analogs).
(§5) Analogs were used at a concentration of ^~ 40 μM.
as §2, §3

[2] = target: T3, E25 (trkA), trkA receptor expressing fibroblast transfectants (Homo sapiens, UniProt P04629); test: 125I-NGF binding to E25 transfectants, with dose response and saturation studies; conditions: for % INHIBITION of 125I-NGF binding, E25 (trkA) / effect on 125I-NGF binding to E25 cells (in words): analog ~40 μM; for % INHIBITION of 125I-NGF binding, E25 (trkA): mean ±2 SEM
T3 construct: expressed in transfected cells; host or cells: NIH-3T3 mouse fibroblasts (E25), from Dr. Mariano Barbacid; Jing et al. 1992
Description: as §1, §4, §5, §2, §3
Saturation binding assays were performed with trkA receptor expressing E25 cells as described above.

[3] = test system: NGF induced neurite outgrowth in PC12 cells; test: NGF induced neurite outgrowth assay in PC12 cells; format: cell-based, rat; conditions: analog ~10 μM, 50 ng/ml NGF; for INHIBITION OF NEURITE OUTGROWTH (1): PC12 cells, arbitrary units by comparison with NGF dose response curves
Description: as §1
(§6) Cells without growth factor added served as baseline, whereas cells with growth factor but without analog added were used for maximum neurite outgrowth determination. All analogs were tested in at least three separate assays from three different synthesis. Samples were coded and analysis were performed blind.
(§7) Representative results for 3 different analogs are shown. For a summary and complete list of the results from these biological tests see Table II.
Significant inhibition is indicated by +++.

[4] = test system: bFGF mediated neurite outgrowth in PC12 cells; test: bFGF mediated neurite outgrowth in PC12 cells (specificity control); format: cell-based, rat; conditions: analog ~10 μM, 50 ng/ml bFGF
Description: as §6, §7

PC12 cells = test: Toxicity control: cell death of PC12 cells after culture with the compounds; format: cell-based, rat
NGF biological activity = conditions: Longo et al. 1990; cited from earlier work
[5] = target: T4, surface trkA receptors on E25 cells (Homo sapiens, UniProt P04629); test: trkA receptor internalization in E25 cells (FACScan); format: cell-based; conditions: 10 μM, 30 min, 37° C. permissive vs 4° C. 0.05% sodium azide
T4 construct: expressed in transfected cells; host or cells: NIH-3T3 mouse fibroblasts (E25), from Dr. Mariano Barbacid; Jing et al. 1992
Excerpt: Expression of surface trkA receptors was quantified by FACScan analysis.
FIG. 4A illustrates FACScan profiles using an anti-trkA specific monoclonal antibody versus control mouse IgG.
FIG. 4B is a graph of the analysis of the % reduction of cell surface mean fluorescence channel (MFC, using the Lysis (B.D.) software) after receptor internalization.

[6] = target: T3, E25 (trkA), trkA receptor expressing fibroblast transfectants; test: 125I-NGF binding to E25 transfectants, with dose response and saturation studies; conditions: dose response 0.4 μM to 200 μM analog, constant 200 pM 125I-NGF; read-out: IC50, inhibition of 125I-NGF binding

T1 sequence (P35739 33-799): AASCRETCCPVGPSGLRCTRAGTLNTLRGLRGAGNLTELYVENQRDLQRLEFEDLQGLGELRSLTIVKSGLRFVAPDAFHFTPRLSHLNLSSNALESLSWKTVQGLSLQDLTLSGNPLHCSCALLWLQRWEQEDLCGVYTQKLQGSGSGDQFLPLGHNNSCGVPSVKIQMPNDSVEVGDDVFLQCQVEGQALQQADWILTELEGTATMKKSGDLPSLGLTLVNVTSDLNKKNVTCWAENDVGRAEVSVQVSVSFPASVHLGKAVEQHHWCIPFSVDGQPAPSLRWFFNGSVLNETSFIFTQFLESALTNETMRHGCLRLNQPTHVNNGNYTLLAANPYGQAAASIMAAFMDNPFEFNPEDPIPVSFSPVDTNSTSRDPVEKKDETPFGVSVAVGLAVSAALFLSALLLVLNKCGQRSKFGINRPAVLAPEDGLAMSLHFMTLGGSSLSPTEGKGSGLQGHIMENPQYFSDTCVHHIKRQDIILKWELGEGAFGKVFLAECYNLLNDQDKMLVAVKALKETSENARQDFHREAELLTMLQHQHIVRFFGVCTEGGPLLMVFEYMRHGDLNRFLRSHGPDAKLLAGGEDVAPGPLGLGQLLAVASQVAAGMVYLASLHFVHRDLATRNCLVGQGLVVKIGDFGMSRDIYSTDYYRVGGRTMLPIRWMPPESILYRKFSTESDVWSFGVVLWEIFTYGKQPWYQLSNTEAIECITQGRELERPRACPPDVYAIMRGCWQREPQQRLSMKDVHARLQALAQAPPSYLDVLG
T3 sequence (P04629 33-790 isoform P04629-2 limits assumed): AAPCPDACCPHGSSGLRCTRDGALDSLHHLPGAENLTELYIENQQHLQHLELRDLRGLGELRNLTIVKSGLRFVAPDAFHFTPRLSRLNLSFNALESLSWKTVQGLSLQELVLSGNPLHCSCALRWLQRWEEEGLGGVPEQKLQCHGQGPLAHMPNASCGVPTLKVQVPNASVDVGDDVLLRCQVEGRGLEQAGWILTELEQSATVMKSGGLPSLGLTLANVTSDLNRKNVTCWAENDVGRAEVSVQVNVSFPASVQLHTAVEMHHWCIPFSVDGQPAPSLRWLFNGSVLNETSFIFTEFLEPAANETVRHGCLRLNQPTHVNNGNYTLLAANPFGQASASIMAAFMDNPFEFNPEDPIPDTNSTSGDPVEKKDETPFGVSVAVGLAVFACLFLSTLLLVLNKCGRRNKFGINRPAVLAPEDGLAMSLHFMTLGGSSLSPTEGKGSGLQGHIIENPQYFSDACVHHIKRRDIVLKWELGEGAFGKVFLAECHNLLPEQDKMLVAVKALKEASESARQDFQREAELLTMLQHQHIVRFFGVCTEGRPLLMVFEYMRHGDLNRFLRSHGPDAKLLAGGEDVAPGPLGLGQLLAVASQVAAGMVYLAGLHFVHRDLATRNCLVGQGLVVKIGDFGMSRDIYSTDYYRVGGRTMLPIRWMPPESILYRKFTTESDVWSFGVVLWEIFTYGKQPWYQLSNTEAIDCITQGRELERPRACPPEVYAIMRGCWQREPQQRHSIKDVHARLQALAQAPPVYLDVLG
T2 sequence (P04629 33-796): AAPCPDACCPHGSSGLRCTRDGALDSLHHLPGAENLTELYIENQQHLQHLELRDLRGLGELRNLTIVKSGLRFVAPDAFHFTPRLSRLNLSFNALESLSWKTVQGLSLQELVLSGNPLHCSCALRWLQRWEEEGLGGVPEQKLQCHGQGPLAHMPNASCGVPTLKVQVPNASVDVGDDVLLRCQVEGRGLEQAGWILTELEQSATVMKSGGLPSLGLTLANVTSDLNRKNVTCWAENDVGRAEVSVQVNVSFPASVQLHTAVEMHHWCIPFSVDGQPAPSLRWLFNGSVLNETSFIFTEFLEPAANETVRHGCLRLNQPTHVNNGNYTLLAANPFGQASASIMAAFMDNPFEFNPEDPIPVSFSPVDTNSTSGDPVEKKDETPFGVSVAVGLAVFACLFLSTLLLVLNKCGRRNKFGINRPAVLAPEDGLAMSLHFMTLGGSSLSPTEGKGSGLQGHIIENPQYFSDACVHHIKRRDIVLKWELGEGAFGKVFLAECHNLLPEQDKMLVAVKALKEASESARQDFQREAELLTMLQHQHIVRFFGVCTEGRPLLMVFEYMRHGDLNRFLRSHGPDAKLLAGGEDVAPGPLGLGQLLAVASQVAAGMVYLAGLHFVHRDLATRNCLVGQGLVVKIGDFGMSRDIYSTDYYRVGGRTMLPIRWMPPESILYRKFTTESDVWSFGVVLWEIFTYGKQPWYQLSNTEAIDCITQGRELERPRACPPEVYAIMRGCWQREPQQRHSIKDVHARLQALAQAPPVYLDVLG
T4 sequence (P04629 33-790 isoform P04629-2 limits assumed): as the sequence (P04629 33-790 isoform P04629-2 limits assumed) above

Substance: A T D I K G K E V (ATDIKGKEV) [L(28-36), linear 28-36 control]
- % INHIBITION of 125I-NGF binding, PC12 (trkA-p75) (PC12 (trkA-p75); analog ~40 μM): 5.0%
- % INHIBITION of 125I-NGF binding, R7 (trkA-p75) [1]: -11.3%
- % INHIBITION of 125I-NGF binding, E25 (trkA) [2]: 6.4 ± 12.4%

Substance: A N V S R S P E G (ANVSRSPEG) [R(59-67), randomized 59-67 control]
- INHIBITION OF NEURITE OUTGROWTH (1) [3]: + (equivalent to 25 ng/ml NGF)

Substance: Fmoc-X C D I K G K E C X [C(30-35)]
- effect on bFGF mediated PC12 neurite outgrowth (in words) [4]: did not affect
- effect on 125I-NGF binding to R7 cells (in words) [1]: did not affect NGF binding to R7 cells
- % INHIBITION of 125I-NGF binding, R7 (trkA-p75) [1]: 0.44 ± 0.6%
- effect on NGF mediated PC12 neurite outgrowth (in words) [3]: did not affect
- effect on 125I-NGF binding to E25 cells (in words) [2]: inhibited NGF binding to E25 cells
- % INHIBITION of 125I-NGF binding, E25 (trkA) [2]: 51.1 ± 0.7%

Substance: N N S F V I N V (NNSFVINV) [R(42-49), randomized 42-49 control]
- INHIBITION OF NEURITE OUTGROWTH (1) [3]: + (equivalent to 25 ng/ml NGF)

Substance: Fmoc-X C T A I K G K E C X [C(29-35ΔD30A)]
- cell death / necrosis after culture with the compounds (PC12 cells): did cause necrosis

Substance: V N I N N S V F (VNINNSVF) [L(42-49), linear 42-49 control]
- % INHIBITION of 125I-NGF binding, R7 (trkA-p75) [1]: 8.0%
- % INHIBITION of 125I-NGF binding, E25 (trkA) [2]: -16.0 ± 15.1%

Substance: R A S N P V E S G (RASNPVESG) [L(59-67), linear 59-67 control]
- INHIBITION OF NEURITE OUTGROWTH (1) [3]: + (equivalent to 25 ng/ml NGF)
- % INHIBITION of 125I-NGF binding, E25 (trkA) [2]: -9.5 ± 7.5%

Substance: Fmoc-X C N I N N S V C X [C(43-48)]
- effect on bFGF mediated PC12 neurite outgrowth (in words) [4]: did not affect; also recorded: bFGF was not affected
- % INHIBITION of 125I-NGF binding, R7 (trkA-p75) [1]: 5.0%
- effect on NGF mediated PC12 neurite outgrowth (in words) [3]: significantly inhibited; also recorded: effective in inhibiting biological assays in PC12 cells
- INHIBITION OF NEURITE OUTGROWTH (1) [3]: +++ (equivalent to 6.25 ng/ml NGF)
- effect on 125I-NGF binding to E25 cells (in words) [2]: did not inhibit; also recorded: without being effective at all in binding assays in E25 cells
- % INHIBITION of 125I-NGF binding, E25 (trkA) [2]: -2.7 ± 8.5%

Substance: peptide with sequences from NGF residues 23-35: prior-art linear peptide of Longo et al. with sequences from NGF residues 23-35 (GDKTTATDIKGKE; UniProt P01138 144-156, looked up, fragment)
- concentration of peptide at which inhibition of NGF biological activity occurred (NGF biological activity): 2 mM

Substance: Nerve Growth Factor [NGF]
- % INHIBITION of 125I-NGF binding, PC12 (trkA-p75) (PC12 (trkA-p75); 0.1 uM unlabeled NGF): 69.5 ± 4.5%

Substance: Fmoc-X C S N P V E S C X [C(61-66)]
- cell death / necrosis after culture with the compounds (PC12 cells): did cause necrosis

Substance: Fmoc-X C T D E K Q A C X [C(92-97)]
- effect on bFGF mediated PC12 neurite outgrowth (in words) [4]: did not affect
- % INHIBITION of 125I-NGF binding, R7 (trkA-p75) ([1]; 40 µM): 24.3% and 24.3 ± 9.2%
- effect on NGF mediated PC12 neurite outgrowth (in words) [3]: significantly inhibited
- INHIBITION OF NEURITE OUTGROWTH (1) [3]: +++ (equivalent to 6.25 ng/ml NGF)
- % INHIBITION of 125I-NGF binding, E25 (trkA) ([2]; 40 µM): 64.9% and 64.9 ± 12.4%
- disappearance of surface trkA receptors (receptor internalization) [5]: induced the disappearance of surface trkA receptors at the permissive conditions only

Substance: T T D E K Q A A W (TTDEKQAAW) [L(91-99), linear 91-99 control]
- % INHIBITION of 125I-NGF binding, R7 (trkA-p75) [1]: 3.8 ± 1.0%
- INHIBITION OF NEURITE OUTGROWTH (1) [3]: + (equivalent to 25 ng/ml NGF)
- effect on 125I-NGF binding to E25 cells (in words) [2]: None of the other cyclic, linear or randomized analogs had significant effects
- % INHIBITION of 125I-NGF binding, E25 (trkA) [2]: 2.1 ± 8.5%

Substance: Fmoc-X C I K G K E C X [C(31-35)]
- INHIBITION OF NEURITE OUTGROWTH (1) [3]: ++ (equivalent to 12.5 ng/ml NGF)

Substance: Fmoc-X C T D E K Q C X [C(92-96)]
- IC50 [6]: 23.5 ± 16 µM
- % INHIBITION of 125I-NGF binding, PC12 (trkA-p75) (PC12 (trkA-p75); analog ~40 μM): 86.4 ± 10.4%
- effect on bFGF mediated PC12 neurite outgrowth (in words) [4]: did not affect
- % INHIBITION of 125I-NGF binding, R7 (trkA-p75) ([1]; 40 µM): 51.1% and 51.1 ± 0.7%
- effect on NGF mediated PC12 neurite outgrowth (in words) [3]: significantly inhibited
- nature of inhibition in saturation analysis ([2]; 45 μM analog, 125I-NGF 0-1.13 nM, E25 cells): competitive nature
- % INHIBITION of 125I-NGF binding, E25 (trkA) ([2]; 40 µM): 71.3% and 71.3 ± 13.5%

Substance: Fmoc-X C I N N S V C X [C(44-48)]
- effect on bFGF mediated PC12 neurite outgrowth (in words) [4]: did not affect
- effect on NGF mediated PC12 neurite outgrowth (in words) [3]: significantly inhibited; also recorded: effective in inhibiting biological assays in PC12 cells
- INHIBITION OF NEURITE OUTGROWTH (1) [3]: +++ (equivalent to 6.25 ng/ml NGF)
- effect on 125I-NGF binding to E25 cells (in words) [2]: did not inhibit; also recorded: without being effective at all in binding assays in E25 cells
- % INHIBITION of 125I-NGF binding, E25 (trkA) [2]: -12.5 ± 5.4%

Substance: X C A S N P V E C [C(60-65)]
- INHIBITION OF NEURITE OUTGROWTH (1) [3]: ++ (equivalent to 12.5 ng/ml NGF)

Substance: Fmoc-X C N I N N S C X [C(43-47)]
- INHIBITION OF NEURITE OUTGROWTH (1) [3]: + (equivalent to 25 ng/ml NGF)

Substance: Fmoc-X C K G K E C X [C(32-35)]
- % INHIBITION of 125I-NGF binding, PC12 (trkA-p75) (PC12 (trkA-p75); analog ~40 μM): 9.0%
- effect on 125I-NGF binding to R7 cells (in words) [1]: did not affect NGF binding to R7 cells
- % INHIBITION of 125I-NGF binding, R7 (trkA-p75) [1]: -4.5 ± 6.5%
- INHIBITION OF NEURITE OUTGROWTH (1) [3]: ++ (equivalent to 12.5 ng/ml NGF)
- effect on 125I-NGF binding to E25 cells (in words) [2]: inhibited NGF binding to E25 cells
- % INHIBITION of 125I-NGF binding, E25 (trkA) [2]: 30.7 ± 10.5%

Substance: Fmoc-X C A S N P V E S C X [C(60-66)]
- INHIBITION OF NEURITE OUTGROWTH (1) [3]: ++ (equivalent to 12.5 ng/ml NGF)
